Experimental data published in ChEMBL document CHEMBL1201862, “PubChem BioAssay data set” (2004).
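In this assay, cells in 96-well plates receive the compound at five concentrations for 48 hours. Endpoints are linearly interpolated between the surrounding concentrations. GI50 = concentration required for 50% inhibition of growth.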 The source made the active and inactive calls. No stated cut-off is given here; in the data, active = GI50 up to about 1.1 µM and inactive = higher.

How the values were obtained:
Assay in all cases: NCI-60 cell line screen, 48 h
786-0 = tested on: 786-0
A498 = tested on: A498
A549 = tested on: A549
BT-549 = tested on: BT-549
DU-145 = tested on: DU-145
IGROV-1 = tested on: IGROV-1
K562 = tested on: K562
KM12 = tested on: KM12
MDA-MB-435 = tested on: MDA-MB-435
MDA-N = tested on: MDA-N
MOLT-4 = tested on: MOLT-4
NCI-H226 = tested on: NCI-H226
NCI-H23 = tested on: NCI-H23
OVCAR-8 = tested on: OVCAR-8
RPMI-8226 = tested on: RPMI-8226
SK-MEL-2 = tested on: SK-MEL-2
SN12C = tested on: SN12C
SR = tested on: SR
UO-31 = tested on: UO-31
SNB-78 = tested on: SNB-78

SMILES	GI50 (786-0)	GI50 (A498)	GI50 (A549)	GI50 (BT-549)	GI50 (DU-145)	GI50 (IGROV-1)	GI50 (K562)	GI50 (KM12)	GI50 (MDA-MB-435)	GI50 (MDA-N)	GI50 (MOLT-4)	GI50 (NCI-H226)	GI50 (NCI-H23)	GI50 (OVCAR-8)	GI50 (RPMI-8226)	GI50 (SK-MEL-2)	GI50 (SN12C)	GI50 (SR)	GI50 (UO-31)	GI50 (SNB-78)
COc1ccc(CN(Cc2ccc(OC)cc2)C(=O)CC2(O)C=CCC2)cc1 (configuration not stated)	> 100 µM (inactive)	> 100 µM (inactive)	46.2 µM (inactive)	> 100 µM (inactive)	> 100 µM (inactive)	> 100 µM (inactive)	34 µM (inactive)	45.9 µM (inactive)	71.4 µM (inactive)	72.9 µM (inactive)	31.6 µM (inactive)	> 100 µM (inactive)	> 100 µM (inactive)	37.5 µM (inactive)	31.6 µM (inactive)	56.6 µM (inactive)	> 100 µM (inactive)	36.1 µM (inactive)	44.9 µM (inactive)	
NC(=O)C(Nc1ccc(Cl)cc1)c1cc2cc(Br)ccc2nc1Cl (configuration not stated)	> 50 µM (inactive)	> 50 µM (inactive)	30.2 µM (inactive)	> 50 µM (inactive)	> 50 µM (inactive)	17.6 µM (inactive)	20.5 µM (inactive)	> 50 µM (inactive)	32.7 µM (inactive)	43.7 µM (inactive)	19.5 µM (inactive)	> 50 µM (inactive)	> 50 µM (inactive)	> 50 µM (inactive)	27.8 µM (inactive)	> 50 µM (inactive)	> 50 µM (inactive)	18.9 µM (inactive)	> 50 µM (inactive)	
COc1ccc2c(c1OC)C[C@@H]1c3c(cc4c(c3-2)OCO4)CCN1C	24.2 µM (inactive)	19.1 µM (inactive)	40.2 µM (inactive)	23.8 µM (inactive)	41.1 µM (inactive)	25.4 µM (inactive)	20.3 µM (inactive)	28.8 µM (inactive)	27.5 µM (inactive)	44.1 µM (inactive)	24.3 µM (inactive)	18.1 µM (inactive)	50.1 µM (inactive)	30.1 µM (inactive)	18.5 µM (inactive)	28.2 µM (inactive)	42 µM (inactive)	31.5 µM (inactive)	10.8 µM (inactive)	
COc1ccc(C2c3cc4c(cc3OC(NNc3ccccc3)C2C)OCO4)cc1 (configuration not stated)	22.1 µM (inactive)	17.2 µM (inactive)	4.09 µM (inactive)	20.4 µM (inactive)	5.52 µM (inactive)	7.31 µM (inactive)	1.7 µM (inactive)	2.91 µM (inactive)	4.71 µM (inactive)	8.71 µM (inactive)	3.15 µM (inactive)	16.3 µM (inactive)	13.4 µM (inactive)	24.9 µM (inactive)	4.47 µM (inactive)	21.7 µM (inactive)	11 µM (inactive)	1.71 µM (inactive)	4.33 µM (inactive)	
c1ccc2c(c1)N=c1ccccc1=P21c2ccccc2Nc2ccccc21	1.03 µM (active)	0.581 µM (active)	0.232 µM (active)	0.372 µM (active)	0.388 µM (active)	0.352 µM (active)	0.202 µM (active)	0.132 µM (active)	0.39 µM (active)	0.379 µM (active)	0.3 µM (active)	0.577 µM (active)	0.304 µM (active)	0.521 µM (active)	0.156 µM (active)	0.256 µM (active)	1.5 µM (inactive)	0.31 µM (active)	7.1 µM (inactive)	
CSC1(C)CC2C(CC1N1CCOCC1)C2(C)C (configuration not stated)	> 100 µM (inactive)		> 100 µM (inactive)			> 100 µM (inactive)	> 100 µM (inactive)	> 100 µM (inactive)			> 100 µM (inactive)	> 100 µM (inactive)	> 100 µM (inactive)	> 100 µM (inactive)	> 100 µM (inactive)	> 100 µM (inactive)	> 100 µM (inactive)		> 100 µM (inactive)	> 100 µM (inactive)
Cc1cc(=O)oc2c(C)c(O)ccc12	> 100 µM (inactive)	78.9 µM (inactive)	> 100 µM (inactive)	35.4 µM (inactive)	> 100 µM (inactive)	> 100 µM (inactive)	> 100 µM (inactive)	> 100 µM (inactive)	> 100 µM (inactive)	> 100 µM (inactive)	89.1 µM (inactive)	> 100 µM (inactive)	> 100 µM (inactive)	> 100 µM (inactive)	62.1 µM (inactive)	> 100 µM (inactive)	> 100 µM (inactive)	> 100 µM (inactive)	22.4 µM (inactive)	
c1cc(-c2sc(-c3ccncc3)c(-c3ccncc3)c2-c2ccncc2)ccn1	14.1 µM (inactive)	12.5 µM (inactive)	17.2 µM (inactive)	18.7 µM (inactive)	23 µM (inactive)	18.2 µM (inactive)	28.2 µM (inactive)	26 µM (inactive)	14.6 µM (inactive)	13.8 µM (inactive)	12 µM (inactive)	14.6 µM (inactive)	16.1 µM (inactive)	24.4 µM (inactive)	33.9 µM (inactive)	20.1 µM (inactive)	17.6 µM (inactive)	14.2 µM (inactive)	12.6 µM (inactive)	
